Experimental data: patent US20100217003A1, “1,2,3,4-TETRAHYDROISOQUINOLINE DERIVATIVES HAVING EFFECTS OF PREVENTING AND TREATING DEGENERATIVE AND INFLAMMATORY DISEASES” (priority 2006, published 2010)

System: activated microglial cell
Assay: BH4 production in an activated microglial cell
Type: cell-based
Conditions: activated microglial cell (FIG. 12)

In the case of `COc1cc2c(cc1O)CNCC2` [HMTIQ, 7-hydroxy-6-methoxy-1,2,3,4-tetrahydroisoquinoline], the BH4 production is reported as “inhibitory effect”.
